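In this assay, cells in 96-well plates receive the compound at five concentrations for 48 hours. Endpoints are linearly interpolated between the surrounding concentrations. Here, GI50 denotes the concentration required for 50% inhibition of growth. TGI is the concentration that stops growth completely.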
Key:
Test in all cases: NCI anticancer screen, dose series, 48 h
786-0 renal = tested on: 786-0 renal
A498 renal = tested on: A498 renal
A549 NSCLC = tested on: A549 NSCLC
ACHN renal = tested on: ACHN renal
BT-549 breast = tested on: BT-549 breast
CAKI-1 renal = tested on: CAKI-1 renal
CCRF-CEM leukemia = tested on: CCRF-CEM leukemia
COLO 205 colon = tested on: COLO 205 colon
DU-145 prostate = tested on: DU-145 prostate
EKVX NSCLC = tested on: EKVX NSCLC
HCC-2998 colon = tested on: HCC-2998 colon
HCT-116 colon = tested on: HCT-116 colon
HCT-15 colon = tested on: HCT-15 colon
HL-60(TB) leukemia = tested on: HL-60(TB) leukemia
HOP-62 NSCLC = tested on: HOP-62 NSCLC
HOP-92 NSCLC = tested on: HOP-92 NSCLC
HS 578T breast = tested on: HS 578T breast
HT29 colon = tested on: HT29 colon
IGROV1 ovarian = tested on: IGROV1 ovarian
K-562 leukemia = tested on: K-562 leukemia
KM12 colon = tested on: KM12 colon
LOX IMVI melanoma = tested on: LOX IMVI melanoma
M14 melanoma = tested on: M14 melanoma
MALME-3M melanoma = tested on: MALME-3M melanoma
MCF7 breast = tested on: MCF7 breast
MDA-MB-231 breast = tested on: MDA-MB-231 breast
MDA-MB-435 = tested on: MDA-MB-435
MOLT-4 leukemia = tested on: MOLT-4 leukemia
NCI-H226 lung = tested on: NCI-H226 lung
NCI-H23 lung = tested on: NCI-H23 lung
NCI-H460 lung = tested on: NCI-H460 lung
NCI-H522 lung = tested on: NCI-H522 lung
NCI/ADR-RES ovarian = tested on: NCI/ADR-RES ovarian
OVCAR-4 ovarian = tested on: OVCAR-4 ovarian
OVCAR-5 ovarian = tested on: OVCAR-5 ovarian
OVCAR-8 ovarian = tested on: OVCAR-8 ovarian
PC-3 prostate = tested on: PC-3 prostate
RPMI-8226 leukemia = tested on: RPMI-8226 leukemia
RXF 393 renal = tested on: RXF 393 renal
SF-268 CNS = tested on: SF-268 CNS
SF-295 CNS = tested on: SF-295 CNS
SF-539 CNS = tested on: SF-539 CNS
SK-MEL-2 melanoma = tested on: SK-MEL-2 melanoma
SK-MEL-28 melanoma = tested on: SK-MEL-28 melanoma
SK-MEL-5 melanoma = tested on: SK-MEL-5 melanoma
SK-OV-3 ovarian = tested on: SK-OV-3 ovarian
SN12C renal = tested on: SN12C renal
SNB-19 CNS = tested on: SNB-19 CNS
SNB-75 CNS = tested on: SNB-75 CNS
SR leukemia = tested on: SR leukemia
SW-620 colon = tested on: SW-620 colon
T-47D breast = tested on: T-47D breast
TK-10 renal = tested on: TK-10 renal
U251 CNS = tested on: U251 CNS
UACC-257 melanoma = tested on: UACC-257 melanoma
UACC-62 melanoma = tested on: UACC-62 melanoma
UO-31 renal = tested on: UO-31 renal
OVCAR-3 ovarian = tested on: OVCAR-3 ovarian

## C#Cc1nc(/C=C/C(=O)c2nccn2C)cs1
786-0 renal
  GI50: 262 nM
  TGI: 623 nM
A498 renal
  GI50: 780 nM
  TGI: 1520 nM
A549 NSCLC
  GI50: 1110 nM
  TGI: 3060 nM
ACHN renal
  GI50: 291 nM
  TGI: 794 nM
BT-549 breast
  GI50: 815 nM
  TGI: 1530 nM
CAKI-1 renal
  GI50: 735 nM
  TGI: 1480 nM
CCRF-CEM leukemia
  GI50: 149 nM
  TGI: 566 nM
COLO 205 colon
  GI50: 815 nM
  TGI: 1730 nM
DU-145 prostate
  GI50: 583 nM
  TGI: 1280 nM
EKVX NSCLC
  GI50: 964 nM
  TGI: 1960 nM
HCC-2998 colon
  GI50: 880 nM
  TGI: 1620 nM
HCT-116 colon
  GI50: 456 nM
  TGI: 1220 nM
HCT-15 colon
  GI50: 510 nM
  TGI: 1310 nM
HL-60(TB) leukemia
  GI50: 167 nM
  TGI: 645 nM
HOP-62 NSCLC
  GI50: 1050 nM
  TGI: 1960 nM
HOP-92 NSCLC
  GI50: 1050 nM
  TGI: 1880 nM
HS 578T breast
  GI50: 1040 nM
  TGI: 3130 nM
HT29 colon
  GI50: 837 nM
  TGI: 1700 nM
IGROV1 ovarian
  GI50: 105 nM
  TGI: 215 nM
K-562 leukemia
  GI50: 377 nM
  TGI: 2260 nM
KM12 colon
  GI50: 498 nM
  TGI: 1200 nM
LOX IMVI melanoma
  GI50: 22.9 nM
  TGI: 49.9 nM
M14 melanoma
  GI50: 845 nM
  TGI: 1980 nM
MALME-3M melanoma
  GI50: 893 nM
  TGI: 1830 nM
MCF7 breast
  GI50: 537 nM
  TGI: 1940 nM
MDA-MB-231 breast
  GI50: 708 nM
  TGI: 1500 nM
MDA-MB-435
  GI50: 976 nM
  TGI: 2820 nM
MOLT-4 leukemia
  GI50: 859 nM
  TGI: 2500 nM
NCI-H226 lung
  GI50: 1490 nM
  TGI: 9130 nM
NCI-H23 lung
  GI50: 798 nM
  TGI: 1720 nM
NCI-H460 lung
  GI50: 898 nM
  TGI: 2100 nM
NCI-H522 lung
  GI50: 566 nM
  TGI: 1370 nM
NCI/ADR-RES ovarian
  GI50: 723 nM
  TGI: 2700 nM
OVCAR-4 ovarian
  GI50: 1000 nM
  TGI: 2340 nM
OVCAR-5 ovarian
  GI50: 859 nM
  TGI: 1600 nM
OVCAR-8 ovarian
  GI50: 1160 nM
  TGI: 4360 nM
PC-3 prostate
  GI50: 778 nM
  TGI: 1690 nM
RPMI-8226 leukemia
  GI50: 205 nM
  TGI: 894 nM
RXF 393 renal
  GI50: 502 nM
  TGI: 1390 nM
SF-268 CNS
  GI50: 813 nM
  TGI: 1830 nM
SF-295 CNS
  GI50: 961 nM
  TGI: 1870 nM
SF-539 CNS
  GI50: 748 nM
  TGI: 1470 nM
SK-MEL-2 melanoma
  GI50: 909 nM
  TGI: 2060 nM
SK-MEL-28 melanoma
  GI50: 915 nM
  TGI: 2040 nM
SK-MEL-5 melanoma
  GI50: 1040 nM
  TGI: 2320 nM
SK-OV-3 ovarian
  GI50: 1180 nM
  TGI: 2440 nM
SN12C renal
  GI50: 797 nM
  TGI: 1700 nM
SNB-19 CNS
  GI50: 812 nM
  TGI: 1550 nM
SNB-75 CNS
  GI50: 668 nM
  TGI: 1360 nM
SR leukemia
  GI50: 125 nM
  TGI: 471 nM
SW-620 colon
  GI50: 607 nM
  TGI: 1400 nM
T-47D breast
  GI50: 229 nM
  TGI: 1380 nM
TK-10 renal
  GI50: 1170 nM
  TGI: 2120 nM
U251 CNS
  GI50: 775 nM
  TGI: 1540 nM
UACC-257 melanoma
  GI50: 732 nM
  TGI: 1610 nM
UACC-62 melanoma
  GI50: 715 nM
  TGI: 1460 nM
UO-31 renal
  GI50: 132 nM
  TGI: 355 nM

## N#Cc1c(-n2c(Br)c(Br)c3cc(Br)ccc32)[nH]c2c(Br)cc(Br)cc12
786-0 renal
  GI50: 1580 nM
  TGI: 8780 nM
A498 renal
  GI50: 767 nM
  TGI: 2400 nM
A549 NSCLC
  GI50: 1730 nM
  TGI: > 50000 nM
ACHN renal
  GI50: 3230 nM
  TGI: > 50000 nM
BT-549 breast
  GI50: 1160 nM
  TGI: 2640 nM
CAKI-1 renal
  GI50: 1550 nM
  TGI: 9730 nM
CCRF-CEM leukemia
  GI50: 1380 nM
  TGI: > 18200 nM
COLO 205 colon
  GI50: 1100 nM
  TGI: 3090 nM
DU-145 prostate
  GI50: 2250 nM
  TGI: > 50000 nM
EKVX NSCLC
  GI50: 2040 nM
  TGI: > 50000 nM
HCC-2998 colon
  GI50: 1320 nM
  TGI: 15700 nM
HCT-116 colon
  GI50: 986 nM
  TGI: 2990 nM
HCT-15 colon
  GI50: 938 nM
  TGI: > 18300 nM
HL-60(TB) leukemia
  GI50: 1240 nM
  TGI: 2950 nM
HOP-62 NSCLC
  GI50: 1380 nM
  TGI: 4140 nM
HOP-92 NSCLC
  GI50: 383 nM
  TGI: 1900 nM
HS 578T breast
  GI50: 1060 nM
  TGI: 3560 nM
HT29 colon
  GI50: 1480 nM
  TGI: 5230 nM
IGROV1 ovarian
  GI50: 2140 nM
  TGI: > 50000 nM
K-562 leukemia
  GI50: 735 nM
  TGI: > 50000 nM
KM12 colon
  GI50: 1450 nM
  TGI: 6410 nM
LOX IMVI melanoma
  GI50: 5740 nM
  TGI: 15700 nM
M14 melanoma
  GI50: 1490 nM
  TGI: 7600 nM
MALME-3M melanoma
  GI50: 1680 nM
  TGI: 7210 nM
MCF7 breast
  GI50: 1160 nM
  TGI: 7110 nM
MDA-MB-231 breast
  GI50: 1450 nM
  TGI: > 20600 nM
MDA-MB-435
  GI50: 2020 nM
  TGI: 9380 nM
MOLT-4 leukemia
  GI50: 1310 nM
  TGI: 4090 nM
NCI-H226 lung
  GI50: 1140 nM
  TGI: 3200 nM
NCI-H460 lung
  GI50: 1480 nM
  TGI: 6030 nM
NCI-H522 lung
  GI50: 788 nM
  TGI: 2560 nM
NCI/ADR-RES ovarian
  GI50: 1200 nM
  TGI: 3630 nM
OVCAR-3 ovarian
  GI50: 1940 nM
  TGI: > 50000 nM
OVCAR-4 ovarian
  GI50: 1570 nM
  TGI: > 50000 nM
OVCAR-5 ovarian
  GI50: 2950 nM
  TGI: > 50000 nM
OVCAR-8 ovarian
  GI50: 1660 nM
  TGI: > 29400 nM
PC-3 prostate
  GI50: 982 nM
  TGI: 3990 nM
RPMI-8226 leukemia
  GI50: 859 nM
  TGI: 2560 nM
RXF 393 renal
  GI50: 904 nM
  TGI: 3480 nM
SF-268 CNS
  GI50: 1500 nM
  TGI: > 50000 nM
SF-295 CNS
  GI50: 878 nM
  TGI: 2000 nM
SF-539 CNS
  GI50: 1470 nM
  TGI: > 39600 nM
SK-MEL-2 melanoma
  GI50: 882 nM
  TGI: 1910 nM
SK-MEL-28 melanoma
  GI50: 1490 nM
  TGI: 8530 nM
SK-MEL-5 melanoma
  GI50: 907 nM
  TGI: 1910 nM
SK-OV-3 ovarian
  GI50: 1410 nM
  TGI: 4180 nM
SN12C renal
  GI50: 1270 nM
  TGI: > 17900 nM
SNB-19 CNS
  GI50: 1340 nM
  TGI: > 50000 nM
SNB-75 CNS
  GI50: 954 nM
  TGI: 3790 nM
SR leukemia
  GI50: 1220 nM
  TGI: 6120 nM
SW-620 colon
  GI50: 1590 nM
  TGI: > 50000 nM
T-47D breast
  GI50: 1090 nM
  TGI: 6480 nM
TK-10 renal
  GI50: 1590 nM
  TGI: 4540 nM
U251 CNS
  GI50: 1190 nM
  TGI: > 31400 nM
UACC-257 melanoma
  GI50: 1380 nM
  TGI: 5740 nM
UACC-62 melanoma
  GI50: 1140 nM
  TGI: 3210 nM
UO-31 renal
  GI50: 5450 nM
  TGI: 16100 nM
